Reference: patent publication US20040023924A1, “Use of xyloglucan polymers and oligomers, and derivative compounds, as phytosanitary products and biofertilizers” (priority 2000, published 2004)

Key:
Type in all cases: cell-based, Acer pseudoplatanus L.
[1] = test system: 1,4 β-D-glucanase (EC 3.2.1.4); experiment: Induction of a 1,4 β-D-glucanase response in elicited cells; conditions: 50 nM elicitor; for 1,4 β-D-glucanase response R: 42 hours; for 1,4 β-D-glucanase early response R: after 20 minutes
Description: (§1) Vegetable material: Acer pseudoplatanus L Cells in Suspension
(§2) Test: 2.10^6 Acer pseudoplatanus L. cells were elicited under circular stirring (80 rpm), in 25 ml of culture medium (without 2,4-D) by 50 nM of 2′-fucosyl lactose (compound A) or 50 nM of methyl α-L-Fuc (1→2) β-D-Gal (1→2) β-D-Xyl trisaccharide (compound B)(synthesized according to Lopez et al., 1994) or for a variable time (0 to 42 hours) in the presence or not in the presence of an effector: cycloheximide (1 μM), okadaic acid (5 nM), staurosporine (500 nM), or boroglycine (500 nM). The elicitation experiment is stopped by putting the cells in ice. The cells recovered after decantation and taken up in approximately 1 ml of elicitation buffer are the subject of a specific protein extraction.
(§3) D-glycosylhydrolase extraction. The enzyme extracts are prepared from elicited or non-elicited cells. The cells are homogenized at 0° C. in Tris-HCl buffer (50 mM pH 7.2) containing 1 M of NaCl with a Vibracell™ Bioblock sonicator, maximum power, for 3 times 1 minute. The homogenates are centrifuged at 4° C. (12000 g, 15 minutes) then dialysed and concentrated on Ultrafree™ Millipore ultrafiltration units (cut-off threshold 10 kDa). The retentates, taken up in distilled water, are crude extracts.
(§4) 1,4 β-D-glucanase activity assay. This is based on colorimetric assay (ferricyanide test of Kidby and Davidson (1973) of the cellopentaose substrate reducing units released during the hydrolysis. The reaction medium contains the enzyme extract (1 μg of proteins), reduced cellopentaose (4 μM) in 100 μl of sodium acetate buffer (0.1 M), pH 5.0); the enzymatic reaction at 40° C. develops over a variable time (1 to 3 hours).
(§5) Evaluation of the experimental data. At least 2 kinetics were carried out per sample, and per set of experiments. The reaction rate (ΔA410 minutes^−1 for example) is obtained by linear regression from 4 kinetic curves. The results are expressed by the ratio R (enzymatic activity in elicited cells/enzymatic activity in non-elicited control cells).

[2] = test system: 1,3 β-D-glucanase (EC 3.2.1.39); experiment: Induction of a 1,3 β-D-glucanase response in elicited cells; conditions: 50 nM elicitor; for 1,3 β-D-glucanase response R: 42 hours; for 1,3 β-D-glucanase early response R: after 20 minutes
Description: as §1, §2, §3
as §4, with “1,3” for “1,4”, “the” for “the cellopentaose”, “units (laminarin or laminarin hexamer)” for “units”, “proteins), the substrate (5 μM of” for “proteins),”, “laminarin hexamer)” for “cellopentaose (4 μM)”
as §5

[3] = test system: endochitinase (EC 3.2.1.14); experiment: Induction of an endochitinase response in elicited cells; conditions: 50 nM elicitor; for Endochitinase response: 42 hours; for Endochitinase early response R: after approximately 25 minutes
Description: as §1, §2, §3
Endochitinase activity assay. This is based on the released reducing sugar assay according to Somogyi (1952). The reaction medium contains the enzyme extract (1 μg of proteins), the substrate (25 μg of chitin) in 100 μl of sodium acetate buffer (0.1 M), pH 5.0; the enzymatic reaction at 40° C. develops over a variable time (1 to 5 hours).
as §5

[4] = test system: Phospholipase D (E.C: 3.1.4.4); experiment: Elicitation of phospholipase D activity (NBD-PE fluorescence); conditions: for Optimal Plase D response (100% = non-elicited cells): at the optimal concentration
Description: Vegetable material: Acer pseudoplatanus L. cells in Suspension
Phospholipase D (E.C: 3.1.4.4) (Plase D) activity: this is a phosphatidylcholine phosphatidohydrolase which releases the O-R3 group, according to the diagram below. To the extent that O-R3 is marked (a fluorochrome for example), quantifying this group is equivalent to assaying Plase D activity. For the experiments the substrate used is phosphatidylcholine conjugated to a fluorochrome, i.e. the product nitrobenzoxadiazole phosphoethanolamine (NBD-PE). The retained excitation and emission wavelengths of the fluorochrome are 460 nm and 534 nm respectively. [drawing 5]
Principle: assaying Plase D activity is equivalent to estimating the fluorescence variation at 534 nm of a reaction medium with a spectrofluorimeter (Perkin Elmer).
Test: the reaction medium in a microtitration plate well is as follows: 1.3 10^7 Acer pseudoplatanus L. cells are incubated in a 50 mM HEPES buffer, pH 6.8 enriched with CaCl2 (1 μM), ATP (2 μM), octyl-D-glucoside 50 μM, GTP (6 μM) in the presence of the NBD-PE substrate (4 μM), in the presence or absence of an elicitor (0-100 nM): 2′-fucosyl-lactose (FL), compound A; XXFGol, compound B, in the presence or not in the presence of a methyl jasmonate effector (0-5 nM). The Plase D activity assay is carried out by measuring the fluorescence at 534 nm.
Evaluation of the experimental data. For each sample at least three kinetics are recorded; the Plase D activity is given by the slope of the regression curve. The results are expressed by Δ F534 min^−1. One point on the graph corresponds to the linear regression treatment of at least 2 kinetic curves originating from 2 different samples.
The Plase D elicitation response is evaluated according to the fluorescence variation at […]; the 100% reference value corresponds to the fluorescence in the controls (non-elicited cells)

Compound | 1,4 β-D-glucanase response R [1] | 1,4 β-D-glucanase early response R [1] | 1,3 β-D-glucanase response R [2] | 1,3 β-D-glucanase early response R [2] | Endochitinase response [3] | Endochitinase early response R [3] | Elicitor concentration of optimal Plase D response [4] [nM] | Optimal Plase D response (100% = non-elicited cells) [4] [%] | Plase D elicitation: methyl jasmonate versus 2′-fucosyl lactose ([4]; methyl jasmonate 0 to 5 nM, 2′-fucosyl lactose 1 nM, dose-dependent)
C[C@@H]1O[C@@H](O[C@H]2[C@H](O[C@H]3[C@H](O)[C@@H](O)[C@H](O)O[C@@H]3CO)O[C@H](CO)[C@H](O)[C@@H]2O)[C@@H](O)[C@H](O)[C@@H]1O [compound A, α-L-Fuc(1→2)β-D-Gal(1→4)β-D-Glc] | ~4 | ~5 | ~12 | ~3 | no enzymatic activation was detected | ~6 | 1 | 244 | antagonistic
CO[C@@H]1OC[C@@H](O)[C@H](O)[C@H]1O[C@@H]1O[C@H](CO)[C@H](O)[C@H](O)[C@H]1O[C@@H]1O[C@@H](C)[C@@H](O)[C@@H](O)[C@@H]1O [compound B, methyl α-L-Fuc (1→2)β-D-Gal (1→2)β-D-Xyl] | ~4 | ~5 | ~12 | ~3 | no enzymatic activation was detected | ~6 | 1.7 | 230 | 
